Consider two compounds from ChEMBL document CHEMBL5500376, “Novel pyxinol amide derivatives bearing an aliphatic heterocycle as P-glycoprotein modulators for overcoming multidrug resistance” (Eur J Med Chem, 2024).

SMILES strings stand for the structures. Activity calls are given as the source filed them. The calls are words filed in the database; no cut-off is given here.

Series [1] can be described thus: Reversal of multi-drug resistance in human KVB cells assessed as increase in PTX-induced cytotoxicity by measuring cell survival at 5 uM measured after 72 hrs incubation in presence of 100 nM paclitaxel by MTT assay relative to control. Format: functional, KBV. In general terms: Tetrazolium assays rely on reduction of a dye to a coloured formazan, in cell work by metabolically active cells.

The target of series [2] is T1, ATP-dependent translocase ABCB1 (Homo sapiens, UniProt P08183). Nature of the series: Substrate activity at Pgp in human KVB cells assessed as intracellular accumulation measured after 4 hrs by LC-MS/MS analysis. The note with it: kbv. Format: cell-based.
Series [3] can be described thus: Cytotoxicity against human KBV cells assessed as cell survival at 5 uM measured after 72 hrs incubation by MTT assay relative to control. Format: functional. The note with it: read-out: Activity.
Series [4] can be described thus: Reversal fold, ratio of PTX IC50 to PTX IC50 in presence of test compound for reversal of multi-drug resistance in human KVB cells at 5 uM measured after 72 hrs by MTT. Format: functional, KBV.
Series [5] is described as follows: Reversal of multi-drug resistance in human KVB cells assessed as increase in PTX-induced cytotoxicity by measuring cell survival at 10 uM measured after 72 hrs incubation in presence of 100 nM paclitaxel by MTT assay relative to control. The format is functional, KBV.
Series [6] is described as follows: Reversal fold, ratio of ADR IC50 to ADR IC50 in presence of test compound for reversal of multi-drug resistance in human KVB cells at 10 uM measured after 72 hrs by MTT. The format is functional, KBV.
The test system of series [7] is KBV. Put plainly: Reduction in P-gp protein level in human KVB cells at 10 uM measured upto 96 hrs incubation by Western blot analysis. The format is functional, cell-based.
For series [8], the target named is T1, ATP-dependent translocase ABCB1. Nature of the series: Thermal stabilization of P-gp in human KVB cells at 58 to 61 degreeC by CETSA assay. The format is cell-based. The note with it: kbv.
Series [9] shares this target. Put plainly: Inhibition of P-gp-mediated Ptx-C efflux in human KVB cells assessed as increase in fluorescence intensity incubated for 3 hrs by confocal microscopic analysis. The format is cell-based. The note with it: kbv, at 2.5 to 10 µM, dose 2.5-10 µM.
Series [10] is described as follows: Reversal fold, ratio of 5-fluorouracil IC50 to 5-fluorouracil IC50 in presence of test compound for reversal of multi-drug resistance in human KVB cells at 5 uM measured after 72 hrs by MTT assay. The format is functional, KBV.
The nature of series [11]: Cytotoxicity against human KBV cells assessed as cell survival measured after 72 hrs incubation by MTT assay. Format: functional, cell-based.
Series [12] can be described thus: Reversal fold, ratio of cisplatin IC50 to cisplatin IC50 in presence of test compound for reversal of multi-drug resistance in human KVB cells at 5 uM measured after 72 hrs by MTT assay. The format is functional, KBV.
For series [13], the target named is T2, Broad substrate specificity ATP-binding cassette transporter ABCG2 (Homo sapiens, UniProt Q9UNQ0).
T2 sequence (Q9UNQ0 whole entry): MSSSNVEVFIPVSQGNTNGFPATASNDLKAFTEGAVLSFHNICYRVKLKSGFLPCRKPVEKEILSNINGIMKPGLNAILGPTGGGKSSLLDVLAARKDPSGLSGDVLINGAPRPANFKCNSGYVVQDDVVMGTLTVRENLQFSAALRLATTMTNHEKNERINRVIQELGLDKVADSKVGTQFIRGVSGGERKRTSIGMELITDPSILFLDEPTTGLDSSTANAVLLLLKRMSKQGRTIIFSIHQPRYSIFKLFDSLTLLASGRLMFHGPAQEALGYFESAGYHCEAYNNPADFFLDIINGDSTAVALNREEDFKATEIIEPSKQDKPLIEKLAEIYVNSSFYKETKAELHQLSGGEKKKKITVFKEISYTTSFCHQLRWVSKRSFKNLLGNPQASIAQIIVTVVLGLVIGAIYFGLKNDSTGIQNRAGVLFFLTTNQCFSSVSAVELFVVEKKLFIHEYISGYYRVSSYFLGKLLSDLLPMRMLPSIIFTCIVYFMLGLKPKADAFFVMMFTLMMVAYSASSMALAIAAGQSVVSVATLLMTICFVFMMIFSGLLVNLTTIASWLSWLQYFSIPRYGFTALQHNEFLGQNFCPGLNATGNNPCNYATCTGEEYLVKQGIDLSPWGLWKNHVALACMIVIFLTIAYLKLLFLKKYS
Put plainly: Thermal stabilization of ABCG2 in human KVB cells by CETSA assay. The format is cell-based. The settings on record: kbv.

Series [14] can be described thus: Reversal fold, ratio of ADR IC50 to ADR IC50 in presence of test compound for reversal of multi-drug resistance in human KVB cells at 5 uM measured after 72 hrs by MTT. The format is functional, KBV.
The test system of series [15] is KBV. Nature of the series: Potentiation of PTX-mediated antimigratory activity against human KVB cells assessed as inhibition of cell migration at 2.5 to 10 uM and incubated for 24 hrs in presence of 50 nM by scratch wound healing assay. The format is functional, cell-based. The note with it: dose 2.5-10 µM.
Series [16] can be described thus: Reversal fold, ratio of cisplatin IC50 to cisplatin IC50 in presence of test compound for reversal of multi-drug resistance in human KVB cells at 10 uM measured after 72 hrs by MTT assay. Format: functional, KBV.
The test system of series [17] is KBV. Put plainly: Potentiation of PTX-mediated inhibition of colony formation of human KVB cells assessed as reduction in colonies measured after 48 hrs by crystal violet staining based analysis. The format is functional, cell-based. The note with it: dose […] µM.
Series [18] can be described thus: Reversal fold, ratio of 5-fluorouracil IC50 to 5-fluorouracil IC50 in presence of test compound for reversal of multi-drug resistance in human KVB cells at 10 uM measured after 72 hrs by MTT assay. Format: functional, KBV.
Series [19] in a line: Reversal fold, ratio of PTX IC50 to PTX IC50 in presence of test compound for reversal of multi-drug resistance in human KVB cells at 10 uM measured after 72 hrs by MTT assay. The format is functional, KBV.
Series [20] relates to KBV. Nature of the series: Effect on P-gp sub-cellular localization in human KVB cells at 10 uM measured for 48 hrs incubation by immunofluorescence assay. Format: functional, cell-based.
The target in series [21] is T1, ATP-dependent translocase ABCB1. Put plainly: Inhibition of P-gp-mediated rhodamine-123 efflux in human KVB cells assessed as increase in intracellular Rhodamine-123 accumulation incubated for 30 mins by flow cytometry. The format is cell-based. The note with it: kbv, 0.5 h, at 2.5 to 10 µM, dose 2.5-10 µM. Background: A flow cytometer gives signals particle by particle.

For series [22], the target named is Multidrug resistance-associated protein 1 (Homo sapiens, UniProt P33527). Put plainly: Thermal stabilization of ABCC1 in human KVB cells by CETSA assay. The format is cell-based. The settings on record: kbv.
Series [23] can be described thus: Cytotoxicity against HUVEC cells assessed as cell survival measured after 72 hrs incubation by MTT assay. The format is toxicity, cell-based. The settings on record: human.
Series [24] can be described thus: Cytotoxicity against human KBV cells assessed as cell survival at 10 uM measured after 72 hrs incubation by MTT assay relative to control. Format: functional. The note with it: read-out: Activity.
The nature of series [25]: Cytotoxicity against human HK-2 cells assessed as cell survival measured after 72 hrs incubation by MTT assay. The format is toxicity, cell-based. The settings on record: read-out: IC50.

T1 sequence (P08183 whole entry): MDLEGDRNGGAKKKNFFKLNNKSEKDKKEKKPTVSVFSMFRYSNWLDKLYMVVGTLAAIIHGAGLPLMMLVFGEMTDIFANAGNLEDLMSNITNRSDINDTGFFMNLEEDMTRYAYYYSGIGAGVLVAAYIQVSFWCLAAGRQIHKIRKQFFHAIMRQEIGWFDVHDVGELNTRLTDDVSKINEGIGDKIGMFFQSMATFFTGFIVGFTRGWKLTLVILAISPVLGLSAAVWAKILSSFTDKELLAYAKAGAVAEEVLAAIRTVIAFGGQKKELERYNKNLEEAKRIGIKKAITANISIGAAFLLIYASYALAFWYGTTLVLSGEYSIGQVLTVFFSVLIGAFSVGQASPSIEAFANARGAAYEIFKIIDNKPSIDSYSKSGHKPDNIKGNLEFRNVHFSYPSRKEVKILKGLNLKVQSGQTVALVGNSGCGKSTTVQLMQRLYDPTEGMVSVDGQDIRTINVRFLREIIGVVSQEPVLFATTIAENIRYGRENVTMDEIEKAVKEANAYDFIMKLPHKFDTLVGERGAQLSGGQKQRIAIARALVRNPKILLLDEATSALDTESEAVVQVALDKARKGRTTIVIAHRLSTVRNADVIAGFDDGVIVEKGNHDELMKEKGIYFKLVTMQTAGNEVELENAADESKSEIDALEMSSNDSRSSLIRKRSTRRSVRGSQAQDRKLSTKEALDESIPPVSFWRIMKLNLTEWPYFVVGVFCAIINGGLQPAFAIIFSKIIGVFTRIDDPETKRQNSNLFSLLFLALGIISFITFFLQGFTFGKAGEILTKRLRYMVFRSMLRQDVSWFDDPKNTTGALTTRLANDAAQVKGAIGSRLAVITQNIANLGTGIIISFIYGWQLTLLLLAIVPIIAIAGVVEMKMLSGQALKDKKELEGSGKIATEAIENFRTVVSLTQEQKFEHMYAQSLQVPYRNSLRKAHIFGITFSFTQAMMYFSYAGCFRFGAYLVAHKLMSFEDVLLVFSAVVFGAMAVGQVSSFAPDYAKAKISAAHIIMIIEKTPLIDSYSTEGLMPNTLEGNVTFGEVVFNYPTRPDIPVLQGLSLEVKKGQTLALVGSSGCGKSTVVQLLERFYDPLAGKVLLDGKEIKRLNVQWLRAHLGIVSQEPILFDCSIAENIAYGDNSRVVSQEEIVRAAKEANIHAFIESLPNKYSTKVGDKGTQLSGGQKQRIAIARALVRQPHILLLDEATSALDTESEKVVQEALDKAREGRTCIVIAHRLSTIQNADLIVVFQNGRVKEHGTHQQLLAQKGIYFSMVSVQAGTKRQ
Sequence of Multidrug resistance-associated protein 1 (P33527 whole entry): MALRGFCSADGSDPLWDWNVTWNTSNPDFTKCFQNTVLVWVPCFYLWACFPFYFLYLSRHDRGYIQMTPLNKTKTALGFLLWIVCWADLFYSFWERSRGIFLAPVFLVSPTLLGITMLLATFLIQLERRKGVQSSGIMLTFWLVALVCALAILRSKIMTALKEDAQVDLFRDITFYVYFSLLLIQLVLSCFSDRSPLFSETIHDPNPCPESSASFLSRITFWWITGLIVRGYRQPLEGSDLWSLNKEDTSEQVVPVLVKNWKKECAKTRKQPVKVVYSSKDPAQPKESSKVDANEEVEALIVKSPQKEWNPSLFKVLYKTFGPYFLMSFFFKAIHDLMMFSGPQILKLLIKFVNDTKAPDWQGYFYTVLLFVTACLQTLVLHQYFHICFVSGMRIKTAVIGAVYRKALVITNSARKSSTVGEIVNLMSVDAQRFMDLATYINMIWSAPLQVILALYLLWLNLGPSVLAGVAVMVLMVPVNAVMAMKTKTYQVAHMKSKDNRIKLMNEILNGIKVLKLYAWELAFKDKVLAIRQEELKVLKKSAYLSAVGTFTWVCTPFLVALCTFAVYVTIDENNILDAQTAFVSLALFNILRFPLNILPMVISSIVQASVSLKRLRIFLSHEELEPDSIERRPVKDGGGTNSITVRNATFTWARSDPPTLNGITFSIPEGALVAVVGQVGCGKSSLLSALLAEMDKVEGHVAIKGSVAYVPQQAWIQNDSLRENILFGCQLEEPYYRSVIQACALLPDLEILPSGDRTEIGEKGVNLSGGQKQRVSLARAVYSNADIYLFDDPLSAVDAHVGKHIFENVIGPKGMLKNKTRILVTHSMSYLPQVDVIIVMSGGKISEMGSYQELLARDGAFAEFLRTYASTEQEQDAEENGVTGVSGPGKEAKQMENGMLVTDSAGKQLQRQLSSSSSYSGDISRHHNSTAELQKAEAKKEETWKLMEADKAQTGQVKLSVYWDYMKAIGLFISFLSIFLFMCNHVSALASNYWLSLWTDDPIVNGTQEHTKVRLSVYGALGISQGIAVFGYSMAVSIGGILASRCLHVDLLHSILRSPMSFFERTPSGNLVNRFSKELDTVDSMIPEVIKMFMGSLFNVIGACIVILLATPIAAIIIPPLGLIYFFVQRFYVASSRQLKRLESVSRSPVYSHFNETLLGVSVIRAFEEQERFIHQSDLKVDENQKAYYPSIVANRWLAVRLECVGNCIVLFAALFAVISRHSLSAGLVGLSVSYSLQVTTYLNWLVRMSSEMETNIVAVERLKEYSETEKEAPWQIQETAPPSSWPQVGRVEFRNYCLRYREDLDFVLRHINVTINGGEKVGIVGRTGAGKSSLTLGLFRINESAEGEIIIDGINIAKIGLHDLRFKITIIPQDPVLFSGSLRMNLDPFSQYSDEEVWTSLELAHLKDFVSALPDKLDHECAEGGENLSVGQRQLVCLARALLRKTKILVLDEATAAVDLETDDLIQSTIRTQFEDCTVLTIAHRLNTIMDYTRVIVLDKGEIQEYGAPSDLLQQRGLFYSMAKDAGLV

As to `CC(C)(O)[C@H]1CC[C@@](C)([C@H]2CC[C@]3(C)[C@@H]2[C@H](O)C[C@@H]2[C@@]4(C)CC[C@H](NC(=O)[C@@H]5CCCCN5)C(C)(C)[C@@H]4CC[C@]23C)O1`, the Activity in series [1] is reported as 41%; in series [2], “Active”. The viability at 5 µM in series [3] was found to be 96%. Besides, the “Ratio IC50” value in [4] stood at 116.7.
`CC(C)(C)OC(=O)N1CC(CC(=O)N[C@H]2CC[C@]3(C)[C@H]4C[C@@H](O)[C@@H]5[C@@H]([C@]6(C)CC[C@H](C(C)(C)O)O6)CC[C@@]5(C)[C@]4(C)CC[C@H]3C2(C)C)C1`: the Activity in [5] is 23%; in series [1], 36%; in series [2], “Active”; in [8], “Active”; in [13], “Not Active”; in the series with KBV [17] it was “Dose-Dependent Effect”. Besides, the Activity result in series [22] was “Not Active”. The “Ratio IC50” value is reported as 14.8 in series [6]; 1 in [10]; 1 in [12]; 7.9 in series [14]; 1 in series [16]; 1.1 in [18]. The result in the series with KBV [7] and with KBV [20] was inactive. The “inhibition (INH)” value in series [9] and in series [21] was “Dose-Dependent Effect” each time. Also, in series [11], the IC50 is 44.9 µM. The result in the series with KBV [15] was Active. Besides, in [19], the Ratio is on record as 211.8. Besides, the IC50 at 72 h in series [23] is greater than 100 µM; in [25] it was 63.1 µM. The viability at 10 µM in series [24] came out at 92%.

Usually IC50 stands for the midpoint of a concentration-inhibition curve.
